Earlier results, collected in patent publication US10898452B2, “Stable formulation for parenteral administration of Tapentadol” (Gruenenthal GmbH, priority 2016, dated 2021).

Details: more pronounced at higher pH values

SMILES: CC[C@@H](c1cccc(O)c1)[C@@H](C)CN(C)C [Tapentadol, (1R,2R)-3-(3-dimethylamino-1-ethyl-2-methyl-propyl)-phenol]
- antimicrobial properties: exhibits antimicrobial properties
